Format in all cases: in vivo
One experiment concerns Abutilon theophrasti. Put plainly: Pre-emergence herbicidal action, ABUTH. The arrangement: key to Herbicidal action against ABUTH: % activity: 100 = plants have died, 0 = like control plants. Particulars: comparative experiment, 20 g of a.i./ha. In outline:
(§1)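 Pre-emergence, sandy loam soil; WP/EC formulation applied to covering soil surface, 600–800 l/ha water + 0.2% wetter; greenhouse, 3 wk; visual % damage vs untreated (0–100%).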

For a further experiment, the system named is Amaranthus retroflexus. Put plainly: Pre-emergence herbicidal action, AMARE. The arrangement: key to Herbicidal action against AMARE: % activity: 100 = plants have died, 0 = like control plants. Particulars: comparative experiment, 20 g of a.i./ha. In outline: as §1
In another experiment the test system is Cyperus esculentus. The experiment can be described thus: Pre-emergence herbicidal action, CYPES. The arrangement: key: % activity: 100 = plants have died, 0 = like control plants. As to conditions: comparative experiment, 20 g of a.i./ha. From the text:
(§2) 1. Pre-Emergence Herbicidal Action Against Harmful Plants Seeds of monocotyledonous and dicotyledonous weed plants and crop plants are laid out in sandy loam soil in wood-fiber pots and covered with soil. The compounds of the invention, formulated in the form of wettable powders (WP) or as emulsion concentrates (EC), are then applied to the surface of the covering soil in the form of an aqueous suspension or emulsion at a water application rate equating to 600 to 800 l/ha, with addition of 0.2% wetting agent. After the treatment, the pots are placed in a greenhouse and kept under good growth conditions for the trial plants. The damage to the test plants is scored visually after a test period of 3 weeks by comparison with untreated controls (herbicidal activity in percent (%): 100% activity=the plants have died, 0% activity=like control plants). […] The tables below illustrate, in an exemplary manner, the […] herbicidal action of the compounds according to the invention, the herbicidal activity being stated in percent. [table] In the experiments that follow, herbicidal action of numerous inventive compounds and the known compounds that are structurally closest from D1 (WO 2012/028579 A1) and D2 (WO 2018/202535 A1) were compared under the above-specified conditions by the pre-emergence and post-emergence method. The example numbers given in the tables relate to the compounds disclosed in the respective documents. In addition to the compounds disclosed in D1 and D2, the following compounds V-1 to V-14 that are encompassed by D1 or D2 but are not compounds specified therein were used in the comparative experiments: • V-1: 2-(methylsulfanyl)-3-(methylsulfinyl)-N-(1-methyl-1H-tetrazol-5-yl)-4-(trifluoromethyl)benzamide • V-2: 2-(methylsulfanyl)-3-(methylsulfonyl)-N-(1-methyl-1H-tetrazol-5-yl)-4-(trifluoromethyl)benzamide • V-3: 2,3-bis(ethylsulfanyl)-N-(1-methyl-1H-tetrazol-5-yl)-4-(trifluoromethyl)benzamide • V-4: 2-chloro-3-(ethylsulfanyl)-N-(1-methyl-1H-tetrazol-5-yl)-4-(trifluoromethyl)benzamide • V-5: 2-chloro-4-iodo-3-(methylsulfanyl)-N-(1-methyl-1H-tetrazol-5-yl)benzamide • V-6: 2-chloro-4-iodo-3-(methylsulfinyl)-N-(1-methyl-1H-tetrazol-5-yl)benzamide • V-7: 2-chloro-4-iodo-3-(methylsulfonyl)-N-(1-methyl-1H-tetrazol-5-yl)benzamide • V-8: 2-bromo-3-(methylsulfanyl)-N-(1-methyl-1H-tetrazol-5-yl)-4-(trifluoromethyl)benzamide • V-9: 2-bromo-3-(methylsulfinyl)-N-(1-methyl-1H-tetrazol-5-yl)-4-(trifluoromethyl)benzamide • V-10: 2-bromo-3-(methylsulfonyl)-N-(1-methyl-1H-tetrazol-5-yl)-4-(trifluoromethyl)benzamide • V-11: 2-bromo-3-(ethylsulfanyl)-N-(1-methyl-1H-tetrazol-5-yl)-4-(trifluoromethyl)benzamide • V-12: 2-bromo-3-(ethylsulfinyl)-N-(1-methyl-1H-tetrazol-5-yl)-4-(trifluoromethyl)benzamide • V-13: 2-bromo-3-(ethylsulfonyl)-N-(1-methyl-1-1H-tetrazol-5-yl)-4-(trifluoromethyl)benzamide • V-14: 2-cyclopropyl-3-(ethylsulfanyl)-N-(1-methyl-1H-tetrazol-5-yl)-4-(trifluoromethyl)benzamide Herbicidal Pre-Emergence Action: […]

The subject of a further experiment is Echinochloa crus-galli. The experiment can be described thus: Pre-emergence herbicidal action, ECHCG. As to conditions: Echinochloa crus-galli, 504 h, comparative experiment, 20 g of a.i./ha, read-out: Herbicidal action against ECHCG. The gist of the method:
as §1

The subject of a further experiment is Pharbitis purpurea. The experiment can be described thus: Pre-emergence herbicidal action, PHBPU. Particulars: comparative experiment, 20 g of a.i./ha.
Excerpt: as §2

The test system of another experiment is Polygonum convolvulus. The experiment can be described thus: Pre-emergence herbicidal action, POLCO. Particulars: comparative experiment, 20 g of a.i./ha. The gist of the method: as §1

With `CSc1c(C(=O)Nc2nnnn2C)ccc(C(F)(F)F)c1[S+](C)[O-]` (stereo not drawn) [Example V-1, 2-(methylsulfanyl)-3-(methylsulfinyl)-N-(1-methyl-1H-tetrazol-5-yl)-4-(trifluoromethyl)benzamide, reference compound], the “Herbicidal action against ABUTH” value in the experiment with Abutilon theophrasti is 0. The “Herbicidal action against AMARE” value with Amaranthus retroflexus is on record as 60. Also, the “Herbicidal action against CYPES” value in the experiment on Cyperus esculentus is 50. In the experiment on Echinochloa crus-galli, the pest or weed control at 20 g/ha came to 50%. The “Herbicidal action against PHBPU” value in the experiment on Pharbitis purpurea is reported as 0. For the same molecule, in the experiment on Polygonum convolvulus, the “Herbicidal action against POLCO” value came to 0.

For the origin of these results see patent publication US12492173B2, “Herbicidal substituted N-tetrazolyl aryl carboxamides” (Bayer Aktiengesellschaft, priority 2019, dated 2025).
